We go through 2 compounds from patent US10168342B2, “Lipid probes and uses thereof” (THE SCRIPPS RESEARCH INSTITUTE, priority 2015, dated 2019).

Holding throughout (assay): In situ competitive SILAC profiling with A-DA probe in (PMA-stimulated) A549 cells
What all share (settings): A549 cells, A-DA probe

Assay [1] has as its target T1, A-DA lipid probe targets in A549 cells (Homo sapiens, UniProt O75911).
T1 sequence (O75911 1-302): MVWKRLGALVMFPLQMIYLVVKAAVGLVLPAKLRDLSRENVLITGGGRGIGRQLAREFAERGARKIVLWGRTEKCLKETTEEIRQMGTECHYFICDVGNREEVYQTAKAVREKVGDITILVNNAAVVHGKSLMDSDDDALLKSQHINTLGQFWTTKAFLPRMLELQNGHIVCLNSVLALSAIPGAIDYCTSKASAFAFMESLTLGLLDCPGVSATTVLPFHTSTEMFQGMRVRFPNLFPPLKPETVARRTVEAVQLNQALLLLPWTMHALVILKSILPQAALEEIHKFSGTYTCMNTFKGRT

The target in assay [2] is T2, A-DA lipid probe targets in A549 cells (Homo sapiens, UniProt P45880).
T2 sequence (P45880 1-294): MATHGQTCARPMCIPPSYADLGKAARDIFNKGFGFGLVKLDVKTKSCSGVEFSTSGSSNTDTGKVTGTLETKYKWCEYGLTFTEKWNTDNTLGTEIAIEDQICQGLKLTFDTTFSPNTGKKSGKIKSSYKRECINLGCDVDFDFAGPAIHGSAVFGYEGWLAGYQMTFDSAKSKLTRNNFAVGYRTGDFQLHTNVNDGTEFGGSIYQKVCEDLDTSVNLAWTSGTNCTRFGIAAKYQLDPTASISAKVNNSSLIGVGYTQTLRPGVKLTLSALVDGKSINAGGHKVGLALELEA

The target of assay [3] is T3, A-DA lipid probe targets in A549 cells (Homo sapiens, UniProt P67812).
T3 sequence (P67812 1-179): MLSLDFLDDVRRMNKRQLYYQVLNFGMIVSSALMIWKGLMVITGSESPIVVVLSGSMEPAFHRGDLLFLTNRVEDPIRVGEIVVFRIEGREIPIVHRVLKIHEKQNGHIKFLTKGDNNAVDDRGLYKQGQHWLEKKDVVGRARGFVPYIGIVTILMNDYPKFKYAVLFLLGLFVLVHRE

Assay [4] addresses T4, A-DA lipid probe targets in A549 cells (Homo sapiens, UniProt Q6P1A2).
T4 sequence (Q6P1A2 1-487): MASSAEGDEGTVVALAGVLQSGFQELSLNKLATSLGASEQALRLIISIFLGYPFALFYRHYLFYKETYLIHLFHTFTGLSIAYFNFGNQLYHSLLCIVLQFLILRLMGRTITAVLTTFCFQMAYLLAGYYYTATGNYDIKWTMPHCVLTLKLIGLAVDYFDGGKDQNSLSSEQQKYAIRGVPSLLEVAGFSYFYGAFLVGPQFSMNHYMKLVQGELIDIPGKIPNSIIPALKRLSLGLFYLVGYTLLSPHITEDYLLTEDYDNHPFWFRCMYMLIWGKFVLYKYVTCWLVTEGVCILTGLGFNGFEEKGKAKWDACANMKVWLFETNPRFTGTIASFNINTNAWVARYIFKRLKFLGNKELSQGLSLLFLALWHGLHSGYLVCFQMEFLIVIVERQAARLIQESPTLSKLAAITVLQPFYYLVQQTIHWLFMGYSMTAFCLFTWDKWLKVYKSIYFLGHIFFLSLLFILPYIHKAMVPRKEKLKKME

Assay [5] addresses T5, A-DA lipid probe targets in A549 cells (Homo sapiens, UniProt Q8NF37).
T5 sequence (Q8NF37 1-534): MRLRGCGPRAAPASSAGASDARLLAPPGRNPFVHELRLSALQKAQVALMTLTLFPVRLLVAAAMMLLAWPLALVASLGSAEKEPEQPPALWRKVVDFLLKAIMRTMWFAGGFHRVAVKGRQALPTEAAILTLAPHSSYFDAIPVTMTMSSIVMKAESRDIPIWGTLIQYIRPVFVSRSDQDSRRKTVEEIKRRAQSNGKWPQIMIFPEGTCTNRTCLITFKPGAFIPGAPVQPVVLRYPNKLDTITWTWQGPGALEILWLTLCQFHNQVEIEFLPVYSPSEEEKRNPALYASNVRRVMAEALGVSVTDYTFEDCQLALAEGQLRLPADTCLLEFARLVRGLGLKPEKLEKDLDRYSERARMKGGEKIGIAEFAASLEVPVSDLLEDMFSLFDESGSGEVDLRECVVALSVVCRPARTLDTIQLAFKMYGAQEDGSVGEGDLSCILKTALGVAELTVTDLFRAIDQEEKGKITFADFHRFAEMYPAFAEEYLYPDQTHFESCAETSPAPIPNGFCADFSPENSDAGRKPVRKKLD

For assay [6], the target named is A-DA lipid probe targets in A549 cells (Homo sapiens, UniProt Q9Y639).
Chain of A-DA lipid probe targets in A549 cells (Homo sapiens, UniProt Q9Y639) (Q9Y639 29-398): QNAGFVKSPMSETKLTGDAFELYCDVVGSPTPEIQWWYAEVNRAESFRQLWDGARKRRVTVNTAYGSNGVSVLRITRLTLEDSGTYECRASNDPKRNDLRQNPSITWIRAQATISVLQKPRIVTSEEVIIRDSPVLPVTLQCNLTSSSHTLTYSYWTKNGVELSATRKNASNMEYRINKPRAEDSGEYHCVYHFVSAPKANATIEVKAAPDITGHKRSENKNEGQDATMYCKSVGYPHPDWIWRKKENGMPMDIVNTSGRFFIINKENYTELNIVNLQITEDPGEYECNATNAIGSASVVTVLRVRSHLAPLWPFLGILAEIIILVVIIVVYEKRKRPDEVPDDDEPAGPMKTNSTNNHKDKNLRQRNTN

In the case of `O=C(/C=C/c1cccnc1)NCCCCC1CCN(C(=O)c2ccccc2)CC1` [FK-866, reference compound], in assay [1] (competitor 25 μM), the “SILAC ratio, DHRS3 (O75911)” value is given as 2.0. In addition, the “SILAC ratio, VDAC2 (P45880)” value in assay [2] (competitor 25 μM) is listed as 1.2. The “SILAC ratio, SEC11A (P67812)” value in assay [3] (competitor 25 μM) is reported as 1.2. In addition, the “SILAC ratio, LPCAT3 (Q6P1A2)” value in assay [4] (competitor 25 μM) is listed as 3.3. For the same compound, in assay [5] (competitor 25 μM), the “SILAC ratio, LPCAT1 (Q8NF37)” value was 1.4. In addition, the “SILAC ratio, NPTN (Q9Y639)” value in assay [6] (competitor 25 μM) came to 1.4.
Turning to `C=CCN(C)CCCCCCOc1ccc(C(=O)c2ccc(Br)cc2)c(F)c1` [Ro488071], the “SILAC ratio, DHRS3 (O75911)” value was found to be 1.8 in assay [1] (competitor 5 μM) and 3.1 in assay [1] (competitor 50 μM). Besides, the “SILAC ratio, VDAC2 (P45880)” value in assay [2] (competitor 5 μM) is listed as 1.5; in assay [2] (competitor 50 μM) it was 3.4. The “SILAC ratio, SEC11A (P67812)” value in assay [3] (competitor 5 μM) worked out at 1.5; in assay [3] (competitor 50 μM), 3.3. Further, the “SILAC ratio, LPCAT3 (Q6P1A2)” value is recorded as 1.3 in assay [4] (competitor 5 μM) and 2.7 in assay [4] (competitor 50 μM). Moreover, the results for the “SILAC ratio, LPCAT1 (Q8NF37)” value in assay [5] (competitor 5 μM) and in assay [5] (competitor 50 μM) were 1.6 and 3.1, respectively. In addition, the “SILAC ratio, NPTN (Q9Y639)” value in assay [6] (competitor 5 μM) is on record as 1.3; in assay [6] (competitor 50 μM) it was 3.0.
